# In patent publication US4315928A, “N-Aminosulfenyl carbamate compounds, compositions and use” (priority 1975, dated 1982):
# Key:
# [1] = test system: tomato; assay: Phytotoxicity Test, tomato; format: in vivo; parameters: key: A rating of 1 indicates no perceptible injury; ratings of 2, 3 and 4 indicate intermediate degrees of injury; ratings of 2, 3 and 4 indicate intermediate degrees of injury; ratings of 2, 3 and 4 indicate intermediate degrees of injury; 5 indicates the plant was dead; conditions: ten days
# Protocol: (§1) Suspensions of the test compounds were prepared by dissolving one gram of compound in 50 milliliters of acetone in which had been dissolved 0.1 gram (10 percent of the weight of compound) of an alkylphenoxy polyethoxyethanol surfactant, as an emulsifying or dispersing agent. The resulting solution was mixed into 150 milliliters of water to give roughly 200 milliliters of a suspension containing the compound in finely divided form. The thus-prepared stock suspension contained 0.5 percent by weight of compound. The test concentrations in parts per million by weight employed in the tests described hereinbelow were obtained by appropriate dilutions of the stock suspension with water. The test procedures were as follows:
# (§2) Experiments were also conducted to determine the phytotoxicity of representative compositions with respect to healthy fresh plants. Solutions of the compounds were prepared as described above to provide a concentration of 2500 parts per million of the test compound. The test plants were sprayed in accordance with the procedure described above for the Mite Foliage Spray Test so as to deliver approximately 100 milliliters of test solution to the leaves of each plant tested. The sprayed plants and controls were set aside for approximately one hour to allow the solutions to dry and were then placed in the greenhouse. After ten days the plants were visually inspected to determine the extent of foliage injury. A rating of 1 indicates no perceptible injury; 5 indicates the plant was dead and ratings of 2, 3 and 4 indicate intermediate degrees of injury based upon the number and extent to which leaves were injured.
# [2] = test system: cotton; assay: Phytotoxicity Test, cotton; format: in vivo; parameters: key: A rating of 1 indicates no perceptible injury; ratings of 2, 3 and 4 indicate intermediate degrees of injury; ratings of 2, 3 and 4 indicate intermediate degrees of injury; ratings of 2, 3 and 4 indicate intermediate degrees of injury; 5 indicates the plant was dead; conditions: ten days
# Protocol: as §1, §2
# [3] = test system: corn; assay: Phytotoxicity Test, corn; format: in vivo; parameters: key: A rating of 1 indicates no perceptible injury; ratings of 2, 3 and 4 indicate intermediate degrees of injury; ratings of 2, 3 and 4 indicate intermediate degrees of injury; ratings of 2, 3 and 4 indicate intermediate degrees of injury; 5 indicates the plant was dead; conditions: ten days
# Protocol: as §1, §2
# [4] = test system: rat; assay: in vivo; conditions: oral, statement on Table I
# Protocol: (§3) These compositions were also evaluated to determine their peroral toxicity to mammals by conventional methods. The animal selected for this experiment was the rat.
# [5] = test system: soybeans; assay: Phytotoxicity Test, soybeans; format: in vivo; parameters: key: A rating of 1 indicates no perceptible injury; ratings of 2, 3 and 4 indicate intermediate degrees of injury; ratings of 2, 3 and 4 indicate intermediate degrees of injury; ratings of 2, 3 and 4 indicate intermediate degrees of injury; 5 indicates the plant was dead; conditions: ten days
# Protocol: as §1, §2
# [6] = test system: green beans; assay: Phytotoxicity Test, green beans; format: in vivo; parameters: key: A rating of 1 indicates no perceptible injury; ratings of 2, 3 and 4 indicate intermediate degrees of injury; ratings of 2, 3 and 4 indicate intermediate degrees of injury; ratings of 2, 3 and 4 indicate intermediate degrees of injury; 5 indicates the plant was dead; conditions: ten days
# Protocol: as §1, §2
# [7] = test system: house flies (Musca domestica, L.); assay: whole plant or invertebrate; conditions: po, 24 h, read-out: Insect Toxicity, % Kill at 250 ppm, HF
# [8] = test system: bean aphid (Aphis fabae Scop.); assay: whole plant or invertebrate; conditions: foliar, 24 h, read-out: Insect Toxicity, % Kill at 250 ppm, BA
# [9] = test system: Mexican bean beetle (Epilachna varivestis, Muls.); assay: whole plant or invertebrate; conditions: 72 h, read-out: Insect Toxicity, % Kill at 250 ppm, MBB
# [10] = in vivo; conditions: rat, in vivo, po
# Protocol: as §3
# [11] = test system: two-spotted mite (Tetranychus urticae Koch); assay: whole plant or invertebrate; conditions: foliar, 144 h, read-out: Insect Toxicity, % Kill at 250 ppm, TSM
# [12] = test system: southern armyworm (Prodenia eridania, (Cram.)); assay: whole plant or invertebrate; conditions: Spodoptera eridania, 72 h, read-out: Insect Toxicity, % Kill at 250 ppm, SAW
SMILES,"Crop Phytotoxicity, Injury Rating at 2500 ppm, TOM [1]","Crop Phytotoxicity, Injury Rating at 2500 ppm, COT. [2]","Crop Phytotoxicity, Injury Rating at 2500 ppm, CN [3]",mammalian toxicity (in words) [4],"Crop Phytotoxicity, Injury Rating at 2500 ppm, SOYBN. [5]","Crop Phytotoxicity, Injury Rating at 2500 ppm, GB [6]",mortality at 250 ppm [7] [%],mortality at 250 ppm [8] [%],mortality at 250 ppm [9] [%],LD50 [10] [mg/kg],mortality at 250 ppm [11] [%],mortality at 250 ppm [12] [%]
"CSC(C)=NOC(=O)N(C)SN1CCOCC1 [Compound 3, S-Methyl N-[N'-Methyl-N'-(4-Morpholinosulfenyl)carbamoyloxy]-thioacetimidate]",1,1,1,extremely low mammalian toxicity,1,1,–,–,–,–,–,–
"CCSC(C)=NOC(=O)N(C)SN1CCOCC1 [Compound 4, S-Ethyl-N-[N'-Methyl-N'-(4-Morpholinosulfenyl)Carbamoyloxy]Thioacetimidate]",1,1,1,extremely low mammalian toxicity,2,1,100,100,100,141,100,100
"CN(SN1CCOCC1)C(=O)ON=C1CSCCS1 [Compound 5, 2-N-[N'-Methyl-N'-(4-Morpholinosulfenyl)Carbamoyloxy]imino-1,4-Dithiane]",1,1,1,–,1,1,100,100,100,19.8,100,100
"CSC(C)(C)C=NOC(=O)N(C)SN1CCOCC1 [Compound 6, 2-Methyl-2-(Methylthio)propionaldehyde O-[N-Methyl-N-(4-Morpholinosulfenyl)Carbamoyl]oxime]",1,1,1,–,1,1,100,100,0,1.2,100,10
"CC(=NOC(=O)N(C)SN1CCOCC1)SC(C)C [Compound 7, S-Isopropyl N-[N'-Methyl-N'-(4-Morpholinosulfenyl)carbamoyloxy]thioacetimidate]",1,1,1,–,1,2,100,100,100,28.1,100,100
"CC(=NOC(=O)N(C)SN1CCOCC1)SCCC#N [Compound 8, S-(2-Cyanoethyl)-N-[N'-Methyl-N'-(4-Morpholinosulfenyl)carbamoyloxy]thioacetimidate]",1,1,1,–,1,1,100,100,100,22,100,100
"CC1OCSC1=NOC(=O)N(C)SN1CCOCC1 (centres unmarked) [Compound 9, 5-Methyl-4-N-[N'-Methyl-N'-(4-Morpholinosulfenyl)carbamoyloxy]imino-1,3-Oxathiolane]",2,1,1,–,2,1,100,100,100,16,100,100
"CN(SN1CCOCC1)C(=O)ON=CC(C)(C)C#N [Compound 10, 2-Cyano-2-Methylpropionaldehyde O-[N-Methyl-N-(4-Morpholinosulfenyl)Carbamoyl]oxime]",1,3,1,–,1,1,100,100,100,–,100,100
"CSC(C)=NOC(=O)N(SN1CCOCC1)C(C)C [Compound 14, S-Methyl-N-[N'-Isopropyl-N'-(4-Morpholinosulfenyl)Carbamoyloxy]Thioacetimidate]",1,1,1,–,1,1,0,100,0,–,0,0
"CN(SN1CCOCC1)C(=O)ON=C1SCC(=O)NC1(C)C [Compound 16, 3,3-Dimethyl-2-N-[N'-Methyl-N'-(4-Morpholinosulfenyl)Carbamoyloxy]imino-5-Oxo-Perhydro-1,4-Thiazine]",1,1,1,–,1,1,100,100,100,–,100,100
"CN(C)SN(C)C(=O)ON=C1CSCCS1 [Compound 23, 2-N-[N'-Methyl-N'-(Dimethylaminosulfenyl)carbamoyloxy]imino-1,4-Dithiane]",1,2,1,–,1,1,100,100,100,15,100,100
"CC(=NOC(=O)N(C)SN(C)C)SC(C)C [Compound 24, S-Isopropyl-N-[N'-Methyl-N'-(Dimethylaminosulfenyl)carbamoloxy]thioacetimidate]",2,2,1,–,3,2,100,100,100,28.3,100,100
